Laboratory results from patent US6620588B1, “Method of identifying inhibitors of topoisomerase DNA religation” (priority 2000, dated 2003).
pIC50: −log10 of the molar value. Read-outs that look alike come from different tables or passages of the source.

How the values were obtained:
[1] = target: T1, EU-TOPO (Bos taurus, UniProt F1MN93); format: biochemical, mammalian; settings: for dependence of EU-TOPO inhibition on the base 3′ of the scissile phosphate: EU TG+P compared with EU TA+P substrate; for pIC50: read-out: IC50, inhibition of religation by EU-TOPO
T1 construct: purchased Gibco-BRL
T1 sequence (F1MN93 entry or part of it): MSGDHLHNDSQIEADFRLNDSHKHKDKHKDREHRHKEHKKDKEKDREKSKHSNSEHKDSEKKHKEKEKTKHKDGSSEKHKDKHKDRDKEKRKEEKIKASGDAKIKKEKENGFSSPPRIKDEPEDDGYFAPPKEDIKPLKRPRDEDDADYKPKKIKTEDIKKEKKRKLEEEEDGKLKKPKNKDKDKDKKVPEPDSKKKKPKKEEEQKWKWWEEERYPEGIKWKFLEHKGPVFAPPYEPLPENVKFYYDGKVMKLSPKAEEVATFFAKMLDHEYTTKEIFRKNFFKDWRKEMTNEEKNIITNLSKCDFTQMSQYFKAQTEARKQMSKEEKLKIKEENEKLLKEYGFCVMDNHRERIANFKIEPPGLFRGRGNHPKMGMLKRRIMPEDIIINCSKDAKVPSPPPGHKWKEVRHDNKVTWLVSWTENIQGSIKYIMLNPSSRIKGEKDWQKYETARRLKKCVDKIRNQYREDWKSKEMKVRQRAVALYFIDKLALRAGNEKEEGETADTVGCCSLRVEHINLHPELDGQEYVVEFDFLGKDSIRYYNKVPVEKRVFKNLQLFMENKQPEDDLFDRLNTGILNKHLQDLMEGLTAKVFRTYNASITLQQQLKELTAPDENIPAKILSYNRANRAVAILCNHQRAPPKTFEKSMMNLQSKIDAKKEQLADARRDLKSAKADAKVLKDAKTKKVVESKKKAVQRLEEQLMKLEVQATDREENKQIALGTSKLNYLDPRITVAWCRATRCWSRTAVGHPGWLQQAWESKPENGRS
Source text: The DNA substrate was designed to contain a preferred site for topoisomerase IB action identified in Tetrahymena DNA (A. H. Andersen, E. Gocke, B. J. Bonven, O. F. Nielsen and O. Westergaard. 1985. Topoisomerase I has a strong binding preference for a conserved hexadecameric sequence in the promoter region of the rRNA gene from Tetrahymena pyriformis. Nuc. Acids Res. 13, 1543-1556; B. J. Bonven, E. Bocke and O. Westergaard. 1985. A High Affinity Topoisomerase I Binding Sequence is Clustered at DNase I Hypersensitive Sites in Tetrahymena R-Chromatin. Cell 41, 541-551).
Two orders of addition were compared. Reactions were carried out in which enzyme was preincubated with inhibitor before addition of DNA substrate (FIG. 5, “complete”), which would reveal inhibition at any step in the reaction pathway. Reactions were also carried out in which covalent complexes were formed, then inhibitor added, followed by the religation strand (FIG. 5, “religation”). The latter order of addition tested inhibition of the religation step only.
For EU-TOPO, two different substrate DNAs were tested, containing TA or TG as the bases flanking the scissile phosphate. […] 1998. Molecular Modeling Studies of the DNA-Topoisomerase I Ternary Cleavable Complex with Camptothecin. J. Med. Chem. 41, 2216-2226), so such effects were sought to be discriminated using the microtiter assay.
Standard reaction mixture for assaying EU-TOPO contains 2.5 units EU-TOPO, 2 nM substrate oligonucleotide, 20 mM Tris-Cl (pH 8.0), 72 mM KCl, 5 mM MgCl2, 5 mM DTT and 10% DMSO. EU-TOPO was obtained from Gibco-BRL. The EU-TOPO suicide substrate was based on an optimal sequence found in a Tetrahymena rRNA gene (see FIG. 2B) (A. H. Andersen, E. Gocke, B. J. Bonven, O. F. Nielsen and O. Westergaard. 1985. Topoisomerase I has a strong binding preference for a conserved hexadecameric sequence in the promoter region of the rRNA gene from Tetrahymena pyriformis. Nuc. Acids Res. 13, 1543-1556; B. J. Bonven, E. Bocke and O. Westergaard. 1985. A High Affinity Topoisomerase I Binding Sequence is Clustered at DNase I Hypersensitive Sites in Tetrahymena R-Chromatin. Cell 41, 541-551).
After the topoisomerase reactions were completed, mixtures were adjusted to 20 mM Tris-Cl (pH 8.0), 400 mM NaCl, 10 mM EDTA, and 0.1 mg/ml sonicated salmon sperm DNA in a final volume of 100 μl. 400 mM NaCl was omitted in EU-TOPO assay. The samples were added to avidin-coupled microtiter wells (Boehringer Mannheim), which were then gently agitated at room temperature for 1 hr. Unbound DNA was removed by 3 washes (200 μl, 5 min each) with 30 mM NaOH, 200 mM NaCl, 1 mM EDTA. Bound DNA was then adjusted to 10 mM Tris-Cl (pH 8.0) and 1 mM EDTA. The relative topoisomerase activity was determined using an anti-digoxigenin ELISA. Anti-digoxigenin-peroxidase Fab fragments (0.01 units, Pierce or Boehringer Mannheim) were added into wells and incubated for 1 hr at 37° C. Unbound Anti-digoxigenin peroxidase Fab fragments were removed by 5 washes (300 μl) with PBS containing 0.1% Tween 20. Bound DNA was then incubated with 200 μl of 3,3′-5,5′-tetramethylbenzidine (TMB) solution (Boehringer Mannheim) until sufficient blue product accumulated. The reaction was terminated by adding 100 μl of 1 M sulfuric acid. The resulting yellow color was quantitated at 450 nm.

[2] = system: MCV-TOP; assay: Microtiter plate religation assay for MCV topoisomerase; format: biochemical, molluscum contagiosum virus

For Coumermycin A1, the “dependence of EU-TOPO inhibition on the base 3′ of the scissile phosphate” value (“dependence of EU-TOPO inhibition” below) [1] was “not sensitive”, the “inhibition of EU-TOPO” value ([1]; FIGS. 5B and 5C) was “inhibited” and the “inhibition of EU-TOPO, complete reaction compared with religation” value ([1]; two orders of addition) was “comparable”. For the same compound, the “inhibition of MCV-TOP, religation step” value ([2]; inhibitor added after covalent complex formation, FIG. 5A) was “not religation” and the “inhibition of MCV-TOP, complete reaction” value ([2]; inhibitor added to enzyme before DNA substrate, FIG. 5A) was “inhibit the complete reaction”.

For (−)-epigallocatechin 3-O-gallate [EGCG], the pIC50 ([1]; EU TA+P substrate (A/T base pair 3′ of the point of cleavage)) was 6.30, the “dependence of EU-TOPO inhibition” value [1] was “far more inhibitory on the DNA substrate containing a G/C base pair 3′ of the point of cleavage” and the pIC50 ([1]; EU TG+P substrate (G/C base pair 3′ of the point of cleavage)) was 7.59. For the same compound, the “effect on MCV-TOP” value ([2]; in the concentration range of the EU-TOPO IC50s (nanomolar)) was “no effect”.

CC[C@@]1(O)C(=O)OCc2c1cc1n(c2=O)Cc2cc3ccccc3nc2-1 [Camptothecin] was tested, and the “dependence of EU-TOPO inhibition” value [1] was “more efficient when the 3′ base was G” and the “activity against MCV-TOP” value ([2]; FIG. 5A) was “not active”.
